≈ marks a conversion by molar mass, not a printed value. Like-named read-outs stand apart in the source and are kept apart here.
How the values were obtained:
[1] = system: Saccharomyces cerevisiae; assay: MIC in malt yeast agar, Saccharomyces cerevisiae; type: cell-based, Saccharomyces cerevisiae (ATCC 4105); conditions: Sc, malt yeast agar, 30° C., 48 hours for yeast, read-out: Minimum Inhibitory Concentration (MIC)
Experimental: (§1) The minimum inhibitory concentration (MIC) for the compounds listed in Table I is determined for bacteria, using nutrient agar, and 7 yeast and fungi, using malt yeast agar. A one percent solution of the test compound is prepared in a mixture of acetone and water.
(§2) Malt yeast agar is prepared by adding 3 g yeast extract and 45 g malt agar per liter of deionized water. The specific agar is dispensed in 30 mL aliquots into 25×200 mm test tubes, capped and autoclaved for 15 minutes at 115° C.
(§3) The test tubes containing the agar are cooled in a water bath until the temperature of the agar is 48° C. Then, an appropriate amount of the one percent solution of the test compound is added (except in the controls where no compound is added) to the respective test tubes so that the final concentrations are 500, 250, 100, 50, 25, 10, 2.5, 1.0 and zero parts per million of the test compound in the agar, thus having a known concentration of test compound dispersed therein. The contents of the test tubes are then transferred to respective petri plates. After drying for 24 hours, the petri plates containing nutrient agar are inoculated with bacteria and those containing malt yeast agar are inoculated with yeast and fungi.
(§4) The inoculation with the yeast and fungi is accomplished as follows. Cultures of yeast and fungi are incubated for seven days on malt yeast agar at 30° C. These cultures are used to prepare suspensions by the following procedure. A suspension of each organism is prepared by adding 10 mL of sterile saline and 10 microliters of octylphenoxy polyethoxy ethanol to the agar slant of yeast or fungi. The sterile saline/octylphenoxy polyethoxy ethanol solution is then agitated with a sterile swab to suspend the microorganism grown on the slant. Each resulting suspension is diluted into sterile saline (1 part suspension: 9 parts sterile saline). Aliquots of these dilutions are placed in individual wells of Steer's Replicator and petri plates inoculated as previously described. The petri plates are incubated at 30° C. and read after 48 hours for yeast and 72 hours for fungi.
(§5) Table II lists the bacteria, yeast and fungi used in the MIC test described above along with their respective American Type Culture Collection (ATCC) identification numbers.
(§6) In Tables III and IV, the MIC values of the compounds described in Table I as compared to the MIC of a standard commercial preservative (with 1-(3-chloroalkyl)-3,5,7-triaza-1-azoniaadamantane chloride as the active agent and referred to in Tables III and IV as "STANDARD I") are set forth for the bacteria organisms and yeast/fungi organisms which are listed in Table II.

[2] = system: Candida albicans; assay: MIC in malt yeast agar, Candida albicans; type: cell-based, Candida albicans (ATCC 10231); conditions: Ca; malt yeast agar; 30° C.; 48 hours for yeast; read-out: Minimum Inhibitory Concentration (MIC)
Experimental: as §1, §2, §3, §4, §5, §6

[3] = system: marine organisms; assay: Marine antifouling test on coated panels; conditions: scale 10 (completely free of marine organism growth) to 0 (completely covered)
Experimental: Test panels are prepared from clear, rigid polyvinyl chloride film that is 0.381×10^-3 m thick and has one textured surface. The test panels are 0.1524 m by 0.1524 m squares that have 0.00635 m holes punched at corners on 0.127 m centers. A 0.102 square template, with a 0.067 m diameter hole at the center, is attached to the center of the textured surface of the test panels.
A candidate marine antifoulant compound (1.0 g) is stirred into a resinous latex binder (9.0 g). A portion of the compound/binder mixture (1.5 g, is added to the center of the test panel and uniformly spread over the circular area inside the template.
Water is added dropwise as needed to properly spread the compound/binder mixture. The template prevents the compound/binder mixture from spreading beyond the uncovered area. […] The template is then removed. The test panel is then allowed to dry for 8 to 12 hours at room temperature.
Two test panels are prepared for each candidate marine antifoulant compound. Two control test panels are also prepared by only treating with the resinous latex binder. One test panel of each candidate marine […] compound is attached over a white background to the topside of an exposure support apparatus. The second test panel is attached over a black background to the underside of the exposure support apparatus. The exposure support apparatus is placed horizontally 0.0254 m under a marine surface with the white background topside facing up.
After being removed from the exposure support apparatus, each test panel is inspected and rated for marine organism growth on both the treated and untreated areas of the test panel. The marine organisms present on the treated and untreated areas are noted. The presence of algae spores and bacterial slime are noted but not included in rating each test panel. The test panels are rated on a scale from 10 (representing completely free of marine organism growth) to 0 (representing completely covered with marine organism growth).
In addition, test panels were prepared using tributyl tin oxide, a known marine antifouling compound.

[4] = system: Staphylococcus aureus; assay: MIC in nutrient agar, Staphylococcus aureus; type: cell-based, Staphylococcus aureus (ATCC 6538); conditions: Sa, 48 hours, read-out: Minimum Inhibitory Concentration (MIC)
Experimental: as §1
(§7) Nutrient agar is prepared at pH 6.8, representing a neutral medium, and at pH 8.2, representing an alkaline medium. The nutrient agars are prepared by adding 23 g of nutrient agar to one-liter of deionized water. In addition, the alkaline medium is prepared by adjusting a 0.04M solution of N-(tris-(hydroxymethyl)methyl)glycine buffered deionized water with concentrated sodium hydroxide to a pH of 8.5.
as §3
(§8) The inoculation with bacteria is accomplished by using the following procedure. Twenty-four hour-cultures of each of the bacteria are prepared by incubating the respective bacteria in tubes containing nutrient broth for 24 hours at 30° C. in a shaker. Dilutions of each of the 24 hour-cultures are made so that nine separate suspensions (one for each of the nine test bacteria) are made, each containing 10^8 colony forming units (CFU) per mL of suspension of a particular bacteria. Aliquots of 0.3 mL of each of the bacterial suspensions are used to fill the individual wells of Steer's Replicator. For each microbial suspension, 0.3 mL was used to fill three wells (i.e., three wells of 0.3 mL each) so that for the nine different bacteria, 27 wells are filled. The Steer's Replicator is then used to inoculate both the neutral and alkaline pH nutrient agar petri plates.
(§9) The inoculated petri plates are incubated at 30° C. for 48 hours and then read to determine if the test compound which is incorporated into the agar prevented growth of the respective bacteria.
as §5, §6

[5] = system: Pseudomonas aeruginosa; assay: MIC in nutrient agar, Pseudomonas aeruginosa (Pa); type: cell-based, Pseudomonas aeruginosa (ATCC 10145); conditions: Pa, 48 hours, read-out: Minimum Inhibitory Concentration (MIC)
Experimental: as §1, §7, §3, §8, §9, §5, §6

[6] = system: Klebsiella pneumonias; assay: MIC in nutrient agar, Klebsiella pneumonias; type: cell-based, Klebsiella pneumonias (ATCC 8308); conditions: Kp, 48 hours, read-out: Minimum Inhibitory Concentration (MIC)
Experimental: as §1, §7, §3, §8, §9, §5, §6

[7] = system: Aspergillus niger; assay: MIC in malt yeast agar, Aspergillus niger; type: cell-based, Aspergillus niger (ATCC 16404); conditions: An; malt yeast agar; 30° C.; 72 hours for fungi; read-out: Minimum Inhibitory Concentration (MIC)
Experimental: as §1, §2, §3, §4, §5, §6

Row | SMILES | MIC [1] | MIC [2] | Marine Antifouling Rating ([3]; 10 Week Test, Bottom Panel) | Marine Antifouling Rating ([3]; 10 Week Test, Top Panel) | Marine Antifouling Rating ([3]; 20 Week Test, Bottom Panel) | Marine Antifouling Rating ([3]; 20 Week Test, Top Panel) | MIC ([4]; pH 6.8, 30° C.) | MIC ([4]; pH 8.2, 30° C.) | MIC ([5]; pH 6.8, 30° C.) | MIC ([5]; pH 8.2, 30° C.) | MIC ([6]; pH 6.8, 30° C.) | MIC ([6]; pH 8.2, 30° C.) | MIC [7]
1 | N#CSc1nsnc1SC#N [Example 2, Bis(thiocyanato)-1,2,5-thiadiazole] | 5 µg/mL (≈ 25 µM) | < 1 µg/mL | 9 | 9 | 7 | 2 | 25 µg/mL (≈ 125 µM) | 100 µg/mL (≈ 499 µM) | 50 µg/mL (≈ 250 µM) | 250 µg/mL (≈ 1250 µM) | 25 µg/mL (≈ 125 µM) | 250 µg/mL (≈ 1250 µM) | < 1 µg/mL
2 | N#CSCSc1nsnc1SCSC#N [Example 4, Bis(thiomethylthiocyanato)-1,2,5-thiadiazole] | < 2.5 µg/mL | < 2.5 µg/mL | 9 | 9 | 5 | 7 | < 10 µg/mL | < 10 µg/mL | < 10 µg/mL | < 10 µg/mL | < 10 µg/mL | < 10 µg/mL | < 2.5 µg/mL
